{
  "source": "patent US10201532B2",
  "about": "“Compounds and their use” (ALLECRA THERAPEUTICS GMBH, priority 2010, dated 2019)",
  "key": {"[1]": {"system": "KPC-2 producing K. pneumoniae (ATCC BAA-1705)", "experiment": "Synergistic broth micro-dilution MIC (checkerboard)", "assay_type": "cell-based, Klebsiella pneumoniae", "conditions": "for MIC of Cefepime in combination with BLI / MIC of Cefotaxime in combination with BLI / MIC of Ceftazidime in combination with BLI / MIC of Ceftobiprole in combination with BLI / MIC of Ertapenem in combination with BLI / MIC of Faropenem in combination with BLI / MIC of Imipenem in combination with BLI / MIC of Meropenem in combination with BLI / MIC of Aztreonam in combination with BLI: ATCC BAA-1705"}, "[2]": {"system": "KPC-3 expressing E. coli (J53 R6206)", "experiment": "Synergistic broth micro-dilution MIC (checkerboard)", "assay_type": "cell-based, Escherichia coli"}, "[3]": {"target": "T1, crude KPC-2 enzyme extract (Klebsiella pneumoniae, UniProt Q9F663)", "T1 construct": "enzyme extracts from KPC-2 producing and KPC-3 expressing bacterial gram negative strains were used; endogenous in cells; host or cells: KPC-2 producing gram-negative strain", "T1 sequence (Q9F663 25-293 limits assumed)": "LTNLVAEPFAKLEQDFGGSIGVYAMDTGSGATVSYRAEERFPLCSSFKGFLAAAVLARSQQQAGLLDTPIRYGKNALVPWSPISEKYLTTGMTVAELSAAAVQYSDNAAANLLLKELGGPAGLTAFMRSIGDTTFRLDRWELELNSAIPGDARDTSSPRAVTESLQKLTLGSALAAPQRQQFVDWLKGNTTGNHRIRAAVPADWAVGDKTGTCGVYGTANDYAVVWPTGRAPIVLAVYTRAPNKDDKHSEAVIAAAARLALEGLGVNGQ", "experiment": "β-Lactamase inhibitory assay with CENTA substrate", "assay_type": "biochemical", "excerpt": "(§1) The Compound-1 was subjected to β-lactamase inhibitory assay to determine IC50 and to compare that with the comparator BLI agents as described elsewhere (Bebrone et. al., Antimicrob. Agents. Chemother, 2001, 45(6): 1868-1871; Jamieson et. al, Antimicrob. Agents. Chemother, 2003, 47(5): 1652-1657). Briefly, enzyme extracts from KPC-2 producing and KPC-3 expressing bacterial gram negative strains were used to study the β-lactamase inhibitory activity and determination of IC50 using CENTA as the substrate for β-lactamase."}, "[4]": {"target": "crude KPC-3 enzyme extract (UniProt Q9F663, H272Y, species not given)", "experiment": "β-Lactamase inhibitory assay with CENTA substrate", "assay_type": "biochemical", "conditions": "also headed KPC2", "excerpt": "as §1"}},
  "data": [
    {"smiles": "O=C(O)[C@H]1/C(=C/CO)O[C@@H]2CC(=O)N21", "note": "[Clavulanic acid]", "values": [
      {"measurement": "MIC of Cefepime in combination with BLI", "setting": "[1]; BLI at 2 μg/mL", "result": 64, "unit": "µg/mL"},
      {"measurement": "MIC of Cefotaxime in combination with BLI", "setting": "[1]; BLI at 2 μg/mL", "result": "32 to 64", "unit": "µg/mL"},
      {"measurement": "MIC of Ceftazidime in combination with BLI", "setting": "[1]; BLI at 2 μg/mL", "result": ">64", "unit": "µg/mL"},
      {"measurement": "MIC of Ceftobiprole in combination with BLI", "setting": "[1]; BLI at 2 μg/mL", "result": ">64", "unit": "µg/mL"},
      {"measurement": "MIC of Ertapenem in combination with BLI", "setting": "[1]; BLI at 2 μg/mL", "result": 32, "unit": "µg/mL"},
      {"measurement": "MIC of Faropenem in combination with BLI", "setting": "[1]; BLI at 2 μg/mL", "result": ">64", "unit": "µg/mL"},
      {"measurement": "MIC of Imipenem in combination with BLI", "setting": "[1]; BLI at 2 μg/mL", "result": "8 to 16", "unit": "µg/mL"},
      {"measurement": "MIC of Meropenem in combination with BLI", "setting": "[1]; BLI at 2 μg/mL", "result": 16, "unit": "µg/mL"},
      {"measurement": "MIC of Aztreonam in combination with BLI", "setting": "[1]; BLI at 4 μg/mL", "result": ">64", "unit": "µg/mL"},
      {"measurement": "MIC of Cefepime in combination with BLI", "setting": "[1]; BLI at 4 μg/mL", "result": 64, "unit": "µg/mL"},
      {"measurement": "MIC of Cefotaxime in combination with BLI", "setting": "[1]; BLI at 4 μg/mL", "result": "32 to 64", "unit": "µg/mL"},
      {"measurement": "MIC of Ceftazidime in combination with BLI", "setting": "[1]; BLI at 4 μg/mL", "result": ">64", "unit": "µg/mL"},
      {"measurement": "MIC of Ceftobiprole in combination with BLI", "setting": "[1]; BLI at 4 μg/mL", "result": ">64", "unit": "µg/mL"},
      {"measurement": "MIC of Ertapenem in combination with BLI", "setting": "[1]; BLI at 4 μg/mL", "result": 64, "unit": "µg/mL"},
      {"measurement": "MIC of Faropenem in combination with BLI", "setting": "[1]; BLI at 4 μg/mL", "result": ">64", "unit": "µg/mL"},
      {"measurement": "MIC of Imipenem in combination with BLI", "setting": "[1]; BLI at 4 μg/mL", "result": "8 to 16", "unit": "µg/mL"},
      {"measurement": "MIC of Meropenem in combination with BLI", "setting": "[1]; BLI at 4 μg/mL", "result": "4 to 8", "unit": "µg/mL"},
      {"measurement": "MIC of Cefepime in combination with BLI", "setting": "[1]; BLI at 8 μg/mL", "result": 32, "unit": "µg/mL"},
      {"measurement": "MIC of Cefotaxime in combination with BLI", "setting": "[1]; BLI at 8 μg/mL", "result": "16 to 32", "unit": "µg/mL"},
      {"measurement": "MIC of Ceftazidime in combination with BLI", "setting": "[1]; BLI at 8 μg/mL", "result": ">64", "unit": "µg/mL"},
      {"measurement": "MIC of Ceftobiprole in combination with BLI", "setting": "[1]; BLI at 8 μg/mL", "result": ">64", "unit": "µg/mL"},
      {"measurement": "MIC of Imipenem in combination with BLI", "setting": "[1]; BLI at 8 μg/mL", "result": "4 to 8", "unit": "µg/mL"},
      {"measurement": "MIC of Meropenem in combination with BLI", "setting": "[1]; BLI at 8 μg/mL", "result": 4, "unit": "µg/mL"},
      {"measurement": "MIC of Aztreonam in combination with BLI", "setting": "[1]; BLI at 16 μg/mL", "result": ">64", "unit": "µg/mL"},
      {"measurement": "MIC of Cefepime in combination with BLI", "setting": "[1]; BLI at 16 μg/mL", "result": 32, "unit": "µg/mL"},
      {"measurement": "MIC of Cefotaxime in combination with BLI", "setting": "[1]; BLI at 16 μg/mL", "result": 16, "unit": "µg/mL"},
      {"measurement": "MIC of Ceftazidime in combination with BLI", "setting": "[1]; BLI at 16 μg/mL", "result": 64, "unit": "µg/mL"},
      {"measurement": "MIC of Ceftobiprole in combination with BLI", "setting": "[1]; BLI at 16 μg/mL", "result": ">64", "unit": "µg/mL"},
      {"measurement": "MIC of Ertapenem in combination with BLI", "setting": "[1]; BLI at 16 μg/mL", "result": 32, "unit": "µg/mL"},
      {"measurement": "MIC of Faropenem in combination with BLI", "setting": "[1]; BLI at 16 μg/mL", "result": ">64", "unit": "µg/mL"},
      {"measurement": "MIC of Imipenem in combination with BLI", "setting": "[1]; BLI at 16 μg/mL", "result": 2, "unit": "µg/mL"},
      {"measurement": "MIC of Meropenem in combination with BLI", "setting": "[1]; BLI at 16 μg/mL", "result": 4, "unit": "µg/mL"},
      {"measurement": "MIC of Aztreonam in combination with BLI", "setting": "[1]; BLI at 64 μg/mL", "result": 64, "unit": "µg/mL"},
      {"measurement": "MIC of Cefepime in combination with BLI", "setting": "[1]; BLI at 64 μg/mL", "result": 8, "unit": "µg/mL"},
      {"measurement": "MIC of Cefotaxime in combination with BLI", "setting": "[1]; BLI at 64 μg/mL", "result": 8, "unit": "µg/mL"},
      {"measurement": "MIC of Ceftazidime in combination with BLI", "setting": "[1]; BLI at 64 μg/mL", "result": 16, "unit": "µg/mL"},
      {"measurement": "MIC of Ceftobiprole in combination with BLI", "setting": "[1]; BLI at 64 μg/mL", "result": 64, "unit": "µg/mL"},
      {"measurement": "MIC of Ertapenem in combination with BLI", "setting": "[1]; BLI at 64 μg/mL", "result": 8, "unit": "µg/mL"},
      {"measurement": "MIC of Faropenem in combination with BLI", "setting": "[1]; BLI at 64 μg/mL", "result": ">64", "unit": "µg/mL"},
      {"measurement": "MIC of Imipenem in combination with BLI", "setting": "[1]; BLI at 64 μg/mL", "result": "<0.5", "unit": "µg/mL"},
      {"measurement": "MIC of Meropenem in combination with BLI", "setting": "[1]; BLI at 64 μg/mL", "result": 2, "unit": "µg/mL"},
      {"measurement": "MIC", "setting": "[1]; Klebsiella pneumoniae, ATCCBAA1705, read-out: MIC of BLI alone", "result": "> 64", "unit": "µg/mL"},
      {"measurement": "MIC of Cefepime in combination with BLI", "setting": "[2]; BLI at 2 μg/mL", "result": 8, "unit": "µg/mL"},
      {"measurement": "MIC of Cefotaxime in combination with BLI", "setting": "[2]; BLI at 2 μg/mL", "result": 4, "unit": "µg/mL"},
      {"measurement": "MIC of Ceftazidime in combination with BLI", "setting": "[2]; BLI at 2 μg/mL", "result": 32, "unit": "µg/mL"},
      {"measurement": "MIC of Ceftobiprole in combination with BLI", "setting": "[2]; BLI at 2 μg/mL", "result": 8, "unit": "µg/mL"},
      {"measurement": "MIC of Imipenem in combination with BLI", "setting": "[2]; BLI at 2 μg/mL", "result": 1, "unit": "µg/mL"},
      {"measurement": "MIC of Meropenem in combination with BLI", "setting": "[2]; BLI at 2 μg/mL", "result": 1, "unit": "µg/mL"},
      {"measurement": "MIC of Cefepime in combination with BLI", "setting": "[2]; BLI at 4 μg/mL", "result": 8, "unit": "µg/mL"},
      {"measurement": "MIC of Cefotaxime in combination with BLI", "setting": "[2]; BLI at 4 μg/mL", "result": 1, "unit": "µg/mL"},
      {"measurement": "MIC of Ceftazidime in combination with BLI", "setting": "[2]; BLI at 4 μg/mL", "result": 32, "unit": "µg/mL"},
      {"measurement": "MIC of Ceftobiprole in combination with BLI", "setting": "[2]; BLI at 4 μg/mL", "result": 8, "unit": "µg/mL"},
      {"measurement": "MIC of Imipenem in combination with BLI", "setting": "[2]; BLI at 4 μg/mL", "result": 1, "unit": "µg/mL"},
      {"measurement": "MIC of Meropenem in combination with BLI", "setting": "[2]; BLI at 4 μg/mL", "result": 1, "unit": "µg/mL"},
      {"measurement": "MIC of Cefepime in combination with BLI", "setting": "[2]; BLI at 8 μg/mL", "result": 1, "unit": "µg/mL"},
      {"measurement": "MIC of Cefotaxime in combination with BLI", "setting": "[2]; BLI at 8 μg/mL", "result": "<0.25", "unit": "µg/mL"},
      {"measurement": "MIC of Ceftazidime in combination with BLI", "setting": "[2]; BLI at 8 μg/mL", "result": 8, "unit": "µg/mL"},
      {"measurement": "MIC of Ceftobiprole in combination with BLI", "setting": "[2]; BLI at 8 μg/mL", "result": 2, "unit": "µg/mL"},
      {"measurement": "MIC of Imipenem in combination with BLI", "setting": "[2]; BLI at 8 μg/mL", "result": 0.5, "unit": "µg/mL"},
      {"measurement": "MIC of Meropenem in combination with BLI", "setting": "[2]; BLI at 8 μg/mL", "result": 0.5, "unit": "µg/mL"},
      {"measurement": "MIC", "setting": "[2]; Escherichia coli, read-out: MIC of BLI alone, BLI alone", "result": "> 8", "unit": "µg/mL"},
      {"measurement": "IC50", "setting": "[3]", "result": 330, "unit": "µM"},
      {"measurement": "IC50", "setting": "[4]", "result": 92, "unit": "µM"}
    ]}
  ]
}
